Assay: xn = mol fraction of the nth substance listed
Details: x2 = 0; for electrical conductivity: 101 kPa, frequency 0.001 MHz

O=C1O[C@H]([C@@H](O)CO)C(O)=C1O + CCCC[n+]1ccn(C)c1.[Br-] + O
viscosity [mPa·s], 100 kPa
Details | 293.15 K | 298.15 K | 303.15 K | 308.15 K | 313.15 K | 318.15 K
x1 = 0.0003765 | 1.008 | 0.898 | 0.804 | 0.725 | 0.66 | 0.607
x1 = 0.0007293 | 1.013 | 0.903 | 0.809 | 0.73 | 0.665 | 0.612
x1 = 0.001087 | 1.017 | 0.908 | 0.814 | 0.735 | 0.67 | 0.617
x1 = 0.001456 | 1.023 | 0.914 | 0.819 | 0.74 | 0.674 | 0.621
x1 = 0.001827 | 1.028 | 0.919 | 0.825 | 0.745 | 0.679 | 0.626
x1 = 0.002192 | 1.035 | 0.924 | 0.831 | 0.75 | 0.684 | 0.632

CCCCCCCCCCCCOS(=O)(=O)[O-].[Na+] + CCCCCCCCCCCCCCCC[N+](C)(C)C.[Br-] + O
298.15 K
Details | electrical conductivity [S/m]
x1 = 3e-08 | 0.000305
x1 = 1.029e-05 | 0.00434
x1 = 2.57e-05 | 0.0104
x1 = 3.699e-05 | 0.0155
x1 = 5.034e-05 | 0.0213
x1 = 6.37e-05 | 0.0264
x1 = 7.295e-05 | 0.0301
x1 = 8.321e-05 | 0.0349
x1 = 9.348e-05 | 0.0392
x1 = 0.0001038 | 0.0422
x1 = 0.000113 | 0.0461
x1 = 0.0001212 | 0.051
x1 = 0.0001315 | 0.054
x1 = 0.0001418 | 0.0567
x1 = 0.00015 | 0.0607
x1 = 0.0001582 | 0.0631
x1 = 0.0001665 | 0.0649
x1 = 0.0001737 | 0.0661
x1 = 0.000183 | 0.0673
x1 = 0.0001944 | 0.0683
x1 = 0.0002036 | 0.0701
x1 = 0.000214 | 0.0713
x1 = 0.0002222 | 0.0737
x1 = 0.0002315 | 0.075
x1 = 0.0002408 | 0.0771
x1 = 0.0002521 | 0.0792
x1 = 0.0002625 | 0.0801
x1 = 0.0002738 | 0.0823
x1 = 0.0002862 | 0.0841

OC[C@H]1O[C@@](CO)(O[C@H]2O[C@H](CO)[C@@H](O)[C@H](O)[C@H]2O)[C@@H](O)[C@@H]1O + CCCC[N+](C)(CCCC)CCCC.[Cl-] + O
viscosity [mPa·s], 101.3 kPa
Details | x1 = 0.0003585 | x1 = 0.0007185 | x1 = 0.001078 | x1 = 0.00144 | x1 = 0.001799 | x1 = 0.002163 | x1 = 0.002507
293.15 K | 1.016 | 1.038 | 1.059 | 1.081 | 1.094 | 1.112 | 1.133
298.15 K | 0.906 | 0.921 | 0.935 | 0.957 | 0.972 | 0.987 | 1.006
303.15 K | 0.807 | 0.817 | 0.83 | 0.847 | 0.861 | 0.878 | 0.891
308.15 K | 0.725 | 0.733 | 0.745 | 0.759 | 0.772 | 0.786 | 0.8
313.15 K | 0.657 | 0.664 | 0.674 | 0.683 | 0.697 | 0.71 | 0.721
